Data as given in the NIST ThermoML archive (doi:10.1016/j.fluid.2015.04.017).

Experiment: refractive index (Na D-line) (dimensionless); xn = mol fraction of the nth substance listed
Conditions: 101 kPa, Liquid, Standard Abbe refractometry

CCOC(=O)C(C)O (stereo not drawn) [DL-ethyl lactate] + Cc1ccccc1
refractive index
Conditions | x1 = 0.1001 | x1 = 0.2001 | x1 = 0.3 | x1 = 0.4 | x1 = 0.4998 | x1 = 0.6001 | x1 = 0.7 | x1 = 0.7999 | x1 = 0.9 | x1 = 1
288.15 K | 1.48891 | 1.47943 | 1.47043 | 1.46159 | 1.45318 | 1.44507 | 1.43735 | 1.42997 | 1.42267 | 1.41537
293.15 K | 1.48604 | 1.47659 | 1.46764 | 1.45886 | 1.45051 | 1.44249 | 1.43485 | 1.42751 | 1.42032 | 1.41307
298.15 K | 1.48316 | 1.47373 | 1.46482 | 1.45613 | 1.44784 | 1.43988 | 1.43231 | 1.42508 | 1.41794 | 1.41076
303.15 K | 1.4803 | 1.47091 | 1.46199 | 1.45336 | 1.44515 | 1.43728 | 1.4298 | 1.42263 | 1.41555 | 1.40843
308.15 K | 1.47745 | 1.46812 | 1.45914 | 1.45069 | 1.44254 | 1.43474 | 1.42731 | 1.42018 | 1.41313 | 1.4061
313.15 K | 1.47462 | 1.46532 | 1.45628 | 1.44801 | 1.4399 | 1.43218 | 1.4248 | 1.41773 | 1.4107 | 1.40374
318.15 K | 1.47184 | 1.46262 | 1.45368 | 1.44558 | 1.4376 | 1.42987 | 1.42243 | 1.41531 | 1.40819 | 1.40136
323.15 K | 1.46909 | 1.45995 | 1.45131 | 1.44313 | 1.43523 | 1.42752 | 1.42006 | 1.41291 | 1.40578 | 1.39898

CCOC(=O)C(C)O (stereo not drawn) [DL-ethyl lactate] + CN1CCCC1=O
refractive index
Conditions | x1 = 0.0999 | x1 = 0.2 | x1 = 0.3001 | x1 = 0.4 | x1 = 0.4997 | x1 = 0.6 | x1 = 0.7002 | x1 = 0.7999 | x1 = 0.8997 | x1 = 1
288.15 K | 1.46662 | 1.46071 | 1.45507 | 1.44952 | 1.44392 | 1.43817 | 1.43232 | 1.42648 | 1.42076 | 1.41537
293.15 K | 1.46449 | 1.45857 | 1.4529 | 1.44734 | 1.44172 | 1.43597 | 1.43014 | 1.4243 | 1.41855 | 1.41307
298.15 K | 1.46235 | 1.45645 | 1.45078 | 1.4452 | 1.43956 | 1.4338 | 1.42795 | 1.42209 | 1.41631 | 1.41076
303.15 K | 1.46021 | 1.45431 | 1.44863 | 1.44302 | 1.43738 | 1.43161 | 1.42575 | 1.41988 | 1.41406 | 1.40843
308.15 K | 1.45809 | 1.45218 | 1.44646 | 1.44084 | 1.43516 | 1.42939 | 1.42354 | 1.41768 | 1.41183 | 1.4061
313.15 K | 1.45594 | 1.45005 | 1.44428 | 1.43859 | 1.43288 | 1.4271 | 1.42126 | 1.41542 | 1.40957 | 1.40374
318.15 K | 1.45386 | 1.44796 | 1.44218 | 1.43648 | 1.43073 | 1.4249 | 1.41902 | 1.41312 | 1.40722 | 1.40136
323.15 K | 1.45178 | 1.44586 | 1.44006 | 1.43431 | 1.42854 | 1.42269 | 1.41679 | 1.41086 | 1.40492 | 1.39898

CCOC(=O)C(C)O (stereo not drawn) [DL-ethyl lactate] + CCC(C)=O
refractive index
Conditions | x1 = 0.0999 | x1 = 0.1999 | x1 = 0.3001 | x1 = 0.4001 | x1 = 0.5 | x1 = 0.5998 | x1 = 0.6999 | x1 = 0.8 | x1 = 0.9001 | x1 = 1
288.15 K | 1.3864 | 1.39058 | 1.39458 | 1.39808 | 1.40142 | 1.40472 | 1.40745 | 1.41049 | 1.41285 | 1.41571
293.15 K | 1.38393 | 1.38819 | 1.39209 | 1.39574 | 1.39914 | 1.40234 | 1.40537 | 1.40818 | 1.41078 | 1.41307
298.15 K | 1.38138 | 1.38566 | 1.38959 | 1.3933 | 1.39673 | 1.39997 | 1.40302 | 1.40585 | 1.40846 | 1.41076
303.15 K | 1.37882 | 1.38314 | 1.38712 | 1.39082 | 1.39428 | 1.39754 | 1.40061 | 1.40346 | 1.4061 | 1.40843
308.15 K | 1.37622 | 1.38055 | 1.38457 | 1.38833 | 1.39183 | 1.39511 | 1.39819 | 1.40105 | 1.40371 | 1.4061
313.15 K | 1.37361 | 1.37791 | 1.38199 | 1.38577 | 1.38931 | 1.39263 | 1.39575 | 1.39864 | 1.40133 | 1.40374
318.15 K | 1.37092 | 1.37524 | 1.37932 | 1.38316 | 1.38671 | 1.39001 | 1.39312 | 1.396 | 1.39886 | 1.40136
323.15 K | 1.36811 | 1.3724 | 1.3765 | 1.38033 | 1.38393 | 1.38737 | 1.39051 | 1.39348 | 1.39642 | 1.39898
